Tested on: Escherichia coli strain ATCC25922
Experiment: standard microdilution assay to determine minimum inhibitory concentrations (MICs)
Type: cell-based
Experimental: The in vitro activity of the compounds of the present invention can be determined. Antimicrobial testing is typically performed to determine the minimum inhibitory concentration (MIC). Minimum inhibitory concentrations (MICs) are determined by the microdilution method in a final volume of 100 μl according to protocols outlined by The Clinical and Laboratory Standards Institute (CLSI). Performance standards for reference strains are assessed within the same experimental design to maintain quality control. See, for example, Clinical Laboratory Standards Institute: Methods for dilution antimicrobial susceptibility tests for bacteria that grow aerobically M7-A8. Approved Standard-Eighth Edition. Wayne, Pa.: CLSI; December 2008; and Clinical Laboratory Standards Institute: Performance Standards for Antimicrobial Susceptibility Testing M100-S20; Approved Standard-Twentieth Edition. Wayne, Pa.: CLSI; June 2010.
The compounds of the present invention were tested for antimicrobial activity. […] The compounds were run against Escherichia coli strain ATCC25922 using a standard microdilution assay to determine minimum inhibitory concentrations (MICs). […] A “N/A” means that data is unavailable. It will be recognized by one skilled in the art that the compounds can be assessed against other bacterial organisms and that the presentation of data for activity against Escherichia coli is illustrative and in no way is intended to limit the scope of the present invention. The compounds of the present invention can be assayed against a range of other microorganisms depending upon the performance activity desired to be gathered. Furthermore, the “+”, “−”, and “N/A” representation and the selection of a cutoff value of 16 micrograms/ml is also illustrative and in no way is intended to limit the scope of the present invention.

[1] = Escherichia coli strain ATCC25922, microdilution
[2] = Escherichia coli strain ATCC25922, standard microdilution assay

SMILES | E. coli ATCC25922 MIC [1] | E. coli ATCC25922 MIC [2]
CS(=O)(=O)Nc1cc(CCCCN)cc(-c2cc3cn(-c4ccc(CNCCCNC(=N)N)cc4)c(=O)nc3[nH]2)c1 [Compound 48] | + (a “+” indicates that the compound has an MIC value of 16 micrograms/ml or less) | –
C[C@@H](CNCc1ccc(-n2cc3cc(-c4cc(CCCCN)cc(OC(F)(F)F)c4)[nH]c3nc2=O)cc1)CNC(=N)N [Compound 35] | + (a “+” indicates that the compound has an MIC value of 16 micrograms/ml or less) | –
C[C@H](N)CCCc1cc(-c2cc3cn(-c4ccc([C@H](C)NCCCNC(=N)N)cc4)c(=O)nc3[nH]2)c(F)c(C2CCOC2)c1 (some centres unmarked) [Compound 466] | – | + (a “+” indicates that the compound has an MIC value of 16 micrograms/ml or less)
CC(C)(N)CCc1cc(-c2cc3cn(-c4ccc(CNCCCNC(=N)N)cc4)c(=O)nc3[nH]2)cc(C(F)(F)F)c1 [Compound 259] | + (a “+” indicates that the compound has an MIC value of 16 micrograms/ml or less) | –
CC(CN)SCc1cc(SC(F)(F)F)cc(-c2cc3cn(-c4ccc(C(C)NCCCNC(=N)N)cc4)c(=O)nc3[nH]2)c1 (centres unmarked) [Compound 337] | – | + (a “+” indicates that the compound has an MIC value of 16 micrograms/ml or less)
CC(C)Cc1cc(CCC[C@H](C)N)cc(-c2cc3cn(-c4ccc([C@H](C)NCCCNC(=N)N)cc4)c(=O)nc3[nH]2)c1F [Compound 432] | – | + (a “+” indicates that the compound has an MIC value of 16 micrograms/ml or less)
NCCCCc1cc(SC(F)(F)F)cc(-c2cc3cn(-c4ccc(CNCCCN=C(N)N)c(F)c4)c(=O)nc3[nH]2)c1 [Compound 68] | + (a “+” indicates that the compound has an MIC value of 16 micrograms/ml or less) | –
C[C@H](N)CCCc1cc(-c2cc3cn(-c4ccc(CN(C)CCCNC(=N)N)cc4)c(=O)nc3[nH]2)cc(C(F)(F)F)c1 [Compound 339] | – | + (a “+” indicates that the compound has an MIC value of 16 micrograms/ml or less)
CC(N)CCCc1cc(Cl)c(F)c(-c2cc3cn(-c4ccc(C(C)NCCCNC(N)=NCC5(C)COC5)cc4)c(=O)nc3[nH]2)c1 (centres unmarked) [Compound 347] | – | + (a “+” indicates that the compound has an MIC value of 16 micrograms/ml or less)
CC(N)CCCc1cc(OC(F)(F)F)c(Cl)c(-c2cc3cn(-c4ccc(C(C)NCCCNC(=N)N)cc4)c(=O)nc3[nH]2)c1 (centres unmarked) [Compound 282] | + (a “+” indicates that the compound has an MIC value of 16 micrograms/ml or less) | –
CCc1cc(CCCCN)cc(-c2cc3cn(-c4ccc(CNCCCNC(=N)N)cc4)c(=O)nc3[nH]2)c1F [Compound 135] | + (a “+” indicates that the compound has an MIC value of 16 micrograms/ml or less) | –
C[C@H](NCCCNC(=N)N)c1ccc(-n2cc3cc(-c4cc(CCCC(C)(C)N)cc(Cl)c4F)[nH]c3nc2=O)cc1 [Compound 296] | + (a “+” indicates that the compound has an MIC value of 16 micrograms/ml or less) | –
CCc1cc(CCCC(C)NC(=N)N)cc(-c2cc3cn(-c4ccc(CNCCCNC(=N)N)cc4)c(=O)nc3[nH]2)c1Cl (centres unmarked) [Compound 284] | + (a “+” indicates that the compound has an MIC value of 16 micrograms/ml or less) | –
N=C(N)NCCCNCc1ccc(-n2cc3cc(-c4cc(CCC5(CN)CCC5)ccc4F)[nH]c3nc2=O)cc1 [Compound 116] | + (a “+” indicates that the compound has an MIC value of 16 micrograms/ml or less) | –
N=C(N)NCCCNCc1ccc(-c2c[nH]c(NC(=O)Nc3c(CO)cccc3OCCCN)nc2=O)cc1 [Compound 190] | − (a “−” indicates that the compound has an MIC value greater than 16 micrograms/ml) | –
N=C(N)NCCCNCc1ccc(-n2cc3cc(-c4cc(CSCCN)ccc4F)[nH]c3nc2=O)cc1 [Compound 7] | + (a “+” indicates that the compound has an MIC value of 16 micrograms/ml or less) | –
C[C@H](N)CCCc1cc2c(c(-c3cc4cn(-c5ccc([C@H](C)NCCCNC(=N)N)cc5)c(=O)nc4[nH]3)c1)OCCC2=O [Compound 456] | – | + (a “+” indicates that the compound has an MIC value of 16 micrograms/ml or less)

From US9221827B2, “Antimicrobial compounds and methods of making and using the same” (Melinta Therapeutics, Inc., priority 2011, dated 2015)
